Laboratory results as given in patent US6849405B2, “Translation enhancer element of the human amyloid precursor protein gene” (The Brigham and Women's Hospital, Inc., priority 1997, dated 2005).
“Also recorded” adds a separate entry of the source.

Tests used:
[1] = tested on: H-ferritin subunit synthesis; test: H-ferritin subunit synthesis, [35S]-methionine labeling and immunoprecipitation, primary astrocytes; type: cell-based; conditions: primary human fetal astrocytes, 0.5 ng/ml, 16 hours
[2] = tested on: L-ferritin subunit synthesis; test: L-ferritin subunit synthesis, [35S]-methionine labeling and immunoprecipitation, primary astrocytes; type: cell-based; conditions: primary human fetal astrocytes, 0.5 ng/ml, 16 hours
[3] = tested on: APP protein at the site of the lesion; conditions: injected into rat cerebral cortex; cited from earlier work
ACT-mRNA = test: Northern blot of ACT-mRNA, astrocytoma cells; type: cell-based, human; conditions: astrocytoma cells, 16 hours of IL-1 stimulation, 48 hours blot exposure
Protocol: Total RNA (10 μg) was extracted from primary astrocytes and astrocytoma cells with a RNA-STAT kit (Tel-Test). RNA samples were denatured in 50% formamide/2.2 M formaldehyde/20 mM MOPS/5 mM sodium acetate/0.5 mM EDTA, pH 7.4, at 60° C. for 10 minutes, electrophoresed on 1.0% agarose-formaldehyde gels, blotted onto Hybond-N filters and immobilized by UV crosslinking and heating filters to 80° C. Filters were prehybridized for 3 hours and hybridized overnight in a solution consisting of 50% formamide, […] denatured salmon sperm DNA, 5×SSC, 0.1% sodium dodecyl sulfate and 5×Denhardt's solution. Following hybridization, filters were washed twice for a total of 1 hour in 2×SSC/0.2% sodium dodecyl sulfate at room temperature and twice each for a total of 1 hour in 0.5×SSC/0.1% sodium dodecyl sulfate at 55° C. Equal loading was verified by ethidium bromide staining, non-specific hybridization of the ACT probe to the 28S rRNA, and by standardized hybridization to the GAPDH cDNA probe as an internal standard. The APP cDNA probe corresponded to the unique internal 1 kb fragment gel purified from the 3 kb APP cDNA (Kang et al. Nature 325: 733 (1987)), the ACT cRNA probe to a PstI/SacI fragment (536-943) in the human ACT cDNA (Chandra, et al., Biochemistry 22: 5055 (1983)) and the GAPDH probe to the human GAPDH gene (Tokunaga, et al., Cancer Res. 47: 5616 (1987)).

Substance: interleukin-1 [IL-1]
- up regulation in H-ferritin subunit synthesis [1]: 4 fold
- up regulation in L-ferritin subunit synthesis [2]: 25%
- steady-state levels of APP protein at the site of the lesion [3]: increase the steady-state level of APP-protein; also recorded: increases the steady-state levels of APP protein
- induction in steady-state levels of ACT-mRNA (ACT-mRNA): 6 fold
